Where a name gives a salt, the structure may show the parent alone. Read-outs that look alike come from different tables or passages of the source.
Tests used:
[1] = tested on: HeLa CCT (cancer cell tubulin); assay: Fluorescence (DAPI) tubulin polymerization microassay, HeLa cancer cell tubulin; type: biochemical; settings: for Tubulin Ligand Index (TLI) ratio, HeLa: BBT EC50 divided by HeLa CCT EC50; for EC50: 2 mg/ml tubulin, enhancer format without glycerol, 50% of 20% glycerol control Vmax, read-out: EC50 using HeLa CCT
Text: (§1) A plot of log10 of concentration (X-axis) and Percent Vmax (control) (Y-axis) is made for each compound.

[2] = tested on: MCF-7 CCT (cancer cell tubulin); assay: Fluorescence (DAPI) tubulin polymerization microassay, MCF-7 cancer cell tubulin; settings: BBT EC50 divided by MCF-7 CCT EC50
Procedure: Compounds were assayed in the standard glycerol containing (vinblastine and colchicine) or no glycerol containing (paclitaxel) formats. […] Twenty four micrograms of CCT in G-PEM with 10 uM DAPI plus glycerol (colchicine and vinblastine) or minus glycerol (paclitaxel) at 4° C. was pipetted into wells of the 384-well plate which contained 1.3 ul of 10× strength compound concentration and incubated at 37° C. Tubulin polymerization was detected by measuring the fluorescence of the solution (Ex 360 nm, Em 405 nm) over time. Each set of data, A through I, represents six duplicate polymerization assays from one experiment, the duplicates contain either a 20% glycerol control or one of five compound concentrations (0.1, 0.3, 1.0, 3.0 or 10 uM). Paclitaxel experiments were repeated n=3 for neuronal, n=5 for HeLa and n=2 for MCF-7. Vinblastine experiments were repeated n=2 for neuronal, n=5 for HeLa and n=2 for MCF-7. Colchicine experiments were repeated n=2 for neuronal, HeLa and MCF-7. […]
Using the conditions described in FIG. 9, we measured eleven taxol analogs against BBT and MCF-7 CCT. TLI's were calculated by the method described in FIG. 11. […]
A fluorescent plate reader is tuned to 360 nm excitation wavelength and 405 to 475 nm emission wavelength, a 384 well plate was placed into the machine and it was pre-warmed to 37° C.

[3] = target: Bovine brain tubulin (mainly isotypes βII and βIII); settings: cited from earlier work
[4] = tested on: Bovine brain tubulin (BBT, neuronal tubulin); assay: Fluorescence (DAPI) tubulin polymerization microassay, bovine brain tubulin; type: biochemical; settings: 2 mg/ml tubulin, enhancer format without glycerol; 50% of 20% glycerol control Vmax; read-out: EC50 using neuronal tubulin
Text: as §1

[5] = tested on: HeLa CCT (cancer cell tubulin); settings: BBT IC50 divided by HeLa CCT IC50; IC50 estimated from 50% intercept of dose response curve; cited from earlier work

EC50 [4] | EC50 [1] | Compound | Tubulin Ligand Index (TLI) ratio, HeLa [1] | Tubulin Ligand Index (TLI), BBT vs HeLa CCT, measured by Zentaris GmbH [5] | other results
 |  | CC(=O)O[C@@]12CO[C@@H]1C[C@H](O)[C@@]1(C)C(=O)[C@H](O)C3=C(C)[C@@H](O)C[C@@](O)([C@@H](OC(=O)c4ccccc4)[C@H]21)C3(C)C [10-Deacetyl-baccatin-III] | < 0.01 |  | Tubulin Ligand Index (TLI) ratio, MCF-7 [2]: 0.28
 |  | N=C(N)c1ccc(-c2cc3ccc(C(=N)N)cc3[nH]2)cc1 [DAPI, 4′, 6-diamidino-2-phenylindole-HCl] |  |  | Kd ([3]; bovine brain tubulin in the monomer form, read-out: Kd (affinity constant) for DAPI, monomer form): 43 µM; Kd ([3]; bovine brain tubulin in the polymer form, read-out: Kd (affinity constant) for DAPI, polymer form): 6 µM
140 nM | 150 nM | CC(=O)O[C@@]12CO[C@@H]1C[C@H](O)[C@@]1(C)C(=O)[C@H](O)C3=C(C)[C@@H](OC(=O)[C@H](O)[C@@H](NC(=O)OC(C)(C)C)c4ccccc4)C[C@@](O)([C@@H](OC(=O)c4ccccc4)[C@H]21)C3(C)C [docetaxel] | 0.93 |  | 
150 nM | 790 nM | CC(=O)O[C@H]1C(=O)[C@@]2(C)[C@H]([C@H](OC(=O)c3ccccc3)[C@]3(O)C[C@H](OC(=O)[C@H](O)[C@@H](NC(=O)c4ccccc4)c4ccccc4)C(C)=C1C3(C)C)[C@]1(OC(C)=O)CO[C@@H]1C[C@@H]2O [paclitaxel] |  |  | 
 |  | CC[C@]1(O)C[C@@H]2CN(CCc3c([nH]c4ccccc34)[C@@](C(=O)OC)(c3cc4c(cc3OC)N(C)[C@H]3[C@@](O)(C(=O)OC)[C@H](OC(C)=O)[C@]5(CC)C=CCN6CC[C@]43[C@@H]65)C2)C1 [vinblastine] |  | 1.0 | 
 |  | Disorazol E1 |  | 2.0 | 

Source: patent US20060008864A1, “Methods to measure compound specificity” (priority 2004, published 2006)
